Measurements: patent US6124269A, “2-Halo-6-O-substituted ketolide derivatives” (priority 1998, dated 2000)
Converted amounts (≈) assume the structure as drawn.

What was measured:
Format in all cases: cell-based
[1] = tested on: Streptococcus pyogenes PIU 2548; assay: In vitro agar dilution MIC, organism code NN; settings: unit assumed
Procedure: (§1) Representative compounds of the present invention were assayed in vitro for antibacterial activity as follows: Twelve petri dishes containing successive aqueous dilutions of the test compound mixed with 10 mL of sterilized Brain Heart Infusion (BHI) agar (Difco 0418-01-5) were prepared. Each plate was inoculated with 1:100 (or 1:10 for slow-growing strains, such as Micrococcus and Streptococcus) dilutions of up to 32 different microorganisms, using a Steers replicator block. The inoculated plates were incubated at 35-37° C. for 20 to 24 hours. In addition, a control plate, using BHI agar containing no test compound, was prepared and incubated at the beginning and end of each test.
(§2) An additional plate containing a compound having known susceptibility patterns for the organisms being tested and belonging to the same antibiotic class as the test compound was also prepared and incubated as a further control, as well as to provide test-to-test comparability.
(§3) After incubation, each plate was visually inspected. The minimum inhibitory concentration (MIC) was defined as the lowest concentration of drug yielding no growth, a slight haze, or sparsely isolated colonies on the inoculum spot as compared to the growth control.

[2] = tested on: Nocardia asteroides ATCC 9970; assay: In vitro agar dilution MIC, organism code VV; settings: Table 1B, in µg/mL (unit assumed)
Procedure: as §1
An additional plate containing a compound having known susceptibility patterns for the organisms being tested and belonging to the same antibiotic class as the test compound was also prepared and incubated as a further control, as well as to provide test-to-test comparability. Erythromycin A was used for this purpose.
as §3

[3] = tested on: Streptococcus agalactiae CMX 508; assay: In vitro agar dilution MIC, organism code KK; settings: Table 1B, unit assumed
Procedure: as §1, §2, §3

Escherichia coli SS = assay: In vitro agar dilution MIC, organism code RR; settings: Table 1B, in µg/mL (unit assumed)
Procedure: as §1, §2, §3

[4] = tested on: Micrococcus luteus ATCC 9341; assay: In vitro agar dilution MIC, organism code OO; settings: Table 1B, unit assumed
Procedure: as §1, §2, §3

[5] = tested on: Staphylococcus aureus A-5278; assay: In vitro agar dilution MIC, organism code CC; settings: unit assumed
Procedure: as §1, §2, §3

[6] = tested on: Streptococcus pneumoniae ATCC 6303; assay: In vitro agar dilution MIC, organism code XX; settings: unit assumed
Procedure: as §1, §2, §3

[7] = tested on: Streptococcus pneumoniae GYR 1171; assay: In vitro agar dilution MIC, organism code YY; settings: Table 1B, unit assumed
Procedure: as §1, §2, §3

[8] = tested on: Mycobacterium smegmatis ATCC 114; assay: In vitro agar dilution MIC, organism code UU; settings: Table 1B, in µg/mL (unit assumed)
Procedure: as §1, §2, §3

[9] = tested on: Staphylococcus aureus 1775; assay: In vitro agar dilution MIC, organism code GG; settings: Table 1B, unit assumed
Procedure: as §1, §2, §3

[10] = tested on: Micrococcus luteus ATCC 4698; assay: In vitro agar dilution MIC, organism code PP; settings: Table 1B, in µg/mL (unit assumed)
Procedure: as §1, §2, §3

[11] = tested on: Streptococcus bovis A-5169; assay: In vitro agar dilution MIC, organism code JJ; settings: Table 1B, unit assumed
Procedure: as §1, §2, §3

[12] = tested on: Streptococcus pneumoniae 5979; assay: In vitro agar dilution MIC, organism code ZZ; settings: unit assumed
Procedure: as §1, §2, §3

[13] = tested on: Haemophilis influenzae DILL AMP R; assay: In vitro agar dilution MIC, organism code WW; settings: unit assumed
Procedure: as §1, §2, §3

[14] = tested on: Staphylococcus epidermidis 3519; assay: In vitro agar dilution MIC, organism code HH; settings: Table 1B, in µg/mL (unit assumed)
Procedure: as §1, §2, §3

Candida albicans CCH 442 = assay: In vitro agar dilution MIC, organism code TT; settings: Table 1B, unit assumed
Procedure: as §1, §2, §3

[15] = tested on: Staphylococcus aureus CMX 642A; assay: In vitro agar dilution MIC, organism code DD; settings: Table 1B, unit assumed
Procedure: as §1, §2, §3

Escherichia coli DC-2 = assay: In vitro agar dilution MIC, organism code SS; settings: Table 1B, unit assumed
Procedure: as §1, §2, §3

[16] = tested on: Staphylococcus aureus ATCC 6538P; assay: In vitro agar dilution MIC, organism code AA; settings: unit assumed
Procedure: as §1, §2, §3

[17] = tested on: Staphylococcus aureus CMX 553; assay: In vitro agar dilution MIC, organism code FF; settings: Table 1B, unit assumed
Procedure: as §1, §2, §3

[18] = tested on: Streptococcus pyogenes 930; assay: In vitro agar dilution MIC, organism code MM; settings: unit assumed
Procedure: as §1, §2, §3

[19] = tested on: Staphylococcus aureus A5177; assay: In vitro agar dilution MIC, organism code BB; settings: in µg/mL (unit assumed)
Procedure: as §1, §2, §3

Escherichia coli JUHL = assay: In vitro agar dilution MIC, organism code QQ; settings: Table 1B, in µg/mL (unit assumed)
Procedure: as §1, §2, §3

[20] = tested on: Streptococcus pneumoniae 5649; assay: In vitro agar dilution MIC, organism code ZZA; settings: unit assumed
Procedure: as §1, §2, §3

[21] = tested on: Staphylococcus aureus NCTC10649M; assay: In vitro agar dilution MIC, organism code EE; settings: Table 1B, unit assumed
Procedure: as §1, §2, §3

[22] = tested on: Enterococcus faecium ATCC 8043; assay: In vitro agar dilution MIC, organism code II; settings: Table 1B, unit assumed
Procedure: as §1, §2, §3

[23] = tested on: Streptococcus pyogenes EES61; assay: In vitro agar dilution MIC, organism code LL; settings: unit assumed
Procedure: as §1, §2, §3

`CC[C@H]1OC(=O)C(C)(Cl)C(=O)[C@H](C)[C@@H](O[C@@H]2O[C@H](C)C[C@H](N(C)C)[C@H]2O)[C@](C)(OC)C[C@@H](C)C2=NCCN3C(=O)O[C@@]1(C)[C@H]3[C@H]2C` (stereo partly shown) [Example 2] gave an MIC ([1]; Table 1B) of 6.2 µg/mL (≈ 9.22 µM), an MIC ([1]; Table 1C) of 16 µg/mL (≈ 23.8 µM) and an MIC [2] of 50. The MIC [3] was 3.1 µg/mL (≈ 4.61 µM), the MIC (Escherichia coli SS) was 0.78 and the MIC [4] was 3.1 µg/mL (≈ 4.61 µM). It also gave an MIC ([5]; Table 1B) of over 100 µg/mL, an MIC ([5]; Table 1C) of over 100 µg/mL and an MIC ([6]; Table 1B) of 4 µg/mL (≈ 5.95 µM). The MIC ([6]; Table 1C) was 4 µg/mL (≈ 5.95 µM), the MIC [7] was 4 µg/mL (≈ 5.95 µM) and the MIC [8] was over 100. The MIC [9] was over 100 µg/mL, the MIC [10] was 6.2 and the MIC [11] was 1.56 µg/mL (≈ 2.32 µM). It also gave an MIC ([12]; Table 1B) of over 128 µg/mL, an MIC ([12]; Table 1C) of over 128 µg/mL and an MIC ([13]; Table 1B) of 32 µg/mL (≈ 47.6 µM). For the same compound, the MIC ([13]; Table 1C) was 32 µg/mL (≈ 47.6 µM), the MIC [14] was 25 and the MIC (Candida albicans CCH 442) was over 100 µg/mL. The MIC [15] was 50 µg/mL (≈ 74.4 µM), the MIC (Escherichia coli DC-2) was over 100 µg/mL and the MIC ([16]; Table 1B) was 25 µg/mL (≈ 37.2 µM). It also gave an MIC ([16]; Table 1C) of 25 µg/mL (≈ 37.2 µM), an MIC [17] of 25 µg/mL (≈ 37.2 µM) and an MIC ([18]; Table 1B) of over 100 µg/mL. It also gave an MIC ([18]; Table 1C) of 128 µg/mL (≈ 190 µM), an MIC ([19]; Table 1B) of 25 and an MIC ([19]; Table 1C) of 25. The MIC (Escherichia coli JUHL) was over 100, the MIC ([20]; Table 1B) was 4 µg/mL (≈ 5.95 µM) and the MIC ([20]; Table 1C) was 4 µg/mL (≈ 5.95 µM). For the same compound, the MIC [21] was 25 µg/mL (≈ 37.2 µM), the MIC [22] was 12.5 µg/mL (≈ 18.6 µM) and the MIC ([23]; Table 1B) was 3.1 µg/mL (≈ 4.61 µM). It also gave an MIC ([23]; Table 1C) of 4 µg/mL (≈ 5.95 µM).

Work on `CC[C@H]1OC(=O)C(C)(Br)C(=O)[C@H](C)[C@@H](O[C@@H]2O[C@H](C)C[C@H](N(C)C)[C@H]2O)[C@](C)(OC)C[C@@H](C)C2=NCCN3C(=O)O[C@@]1(C)[C@H]3[C@H]2C` (stereo partly shown) [Example 3] yielded an MIC ([1]; Table 1B) of 0.39 µg/mL (≈ 0.544 µM), an MIC [2] of 0.39 and an MIC [3] of 0.2 µg/mL (≈ 0.279 µM). For the same compound, the MIC (Escherichia coli SS) was 0.39, the MIC [4] was 0.05 µg/mL (≈ 0.0698 µM) and the MIC ([5]; Table 1B) was over 100 µg/mL. It also gave an MIC ([5]; Table 1C) of over 100 µg/mL, an MIC ([6]; Table 1C) of 0.25 µg/mL (≈ 0.349 µM) and an MIC [7] of 0.125 µg/mL (≈ 0.174 µM). The MIC [8] was 1.56, the MIC [9] was over 100 µg/mL and the MIC [10] was 0.39. It also gave an MIC [11] of 0.2 µg/mL (≈ 0.279 µM), an MIC ([12]; Table 1C) of over 128 µg/mL and an MIC ([13]; Table 1B) of 8 µg/mL (≈ 11.2 µM). The MIC ([13]; Table 1C) was 8 µg/mL (≈ 11.2 µM), the MIC [14] was 0.39 and the MIC (Candida albicans CCH 442) was over 100 µg/mL. The MIC [15] was 0.39 µg/mL (≈ 0.544 µM), the MIC (Escherichia coli DC-2) was over 100 µg/mL and the MIC ([16]; Table 1B) was 0.39 µg/mL (≈ 0.544 µM). The MIC ([16]; Table 1C) was 0.78 µg/mL (≈ 1.09 µM), the MIC [17] was 0.39 µg/mL (≈ 0.544 µM) and the MIC ([18]; Table 1B) was over 100 µg/mL. It also gave an MIC ([18]; Table 1C) of 128 µg/mL (≈ 179 µM), an MIC ([19]; Table 1B) of 0.39 and an MIC ([19]; Table 1C) of 0.78. It also gave an MIC (Escherichia coli JUHL) of over 100, an MIC ([20]; Table 1B) of 2 µg/mL (≈ 2.79 µM) and an MIC ([20]; Table 1C) of 1 µg/mL (≈ 1.4 µM). The MIC [21] was 0.39 µg/mL (≈ 0.544 µM), the MIC [22] was 0.1 µg/mL (≈ 0.14 µM) and the MIC ([23]; Table 1B) was 0.05 µg/mL (≈ 0.0698 µM). It also gave an MIC ([23]; Table 1C) of under 0.125 µg/mL.

With `CC[C@H]1OC(=O)[C@@](C)(F)C(=O)[C@H](C)[C@@H](O[C@@H]2O[C@H](C)C[C@H](N(C)C)[C@H]2O)[C@](C)(OC/C=C/c2cnc3ccc(CS(N)(=O)=O)cc3c2)C[C@@H](C)C(=O)[C@H](C)[C@H]2NC(=O)O[C@@]21C` [Example 14] the MIC ([1]; Table 1B) was 0.2 µg/mL (≈ 0.228 µM), the MIC [2] was 0.1 and the MIC [3] was 0.01 µg/mL (≈ 0.0114 µM). The MIC (Escherichia coli SS) was 0.1, the MIC [4] was 0.01 µg/mL (≈ 0.0114 µM) and the MIC ([5]; Table 1B) was over 100 µg/mL. The MIC ([6]; Table 1B) was at most 0.004 µg/mL, the MIC [7] was at most 0.004 µg/mL and the MIC [8] was 3.1. For the same compound, the MIC [9] was over 100 µg/mL, the MIC [10] was 0.2 and the MIC [11] was at most 0.005 µg/mL. For the same compound, the MIC ([12]; Table 1B) was 2 µg/mL (≈ 2.28 µM), the MIC ([13]; Table 1B) was 2 µg/mL (≈ 2.28 µM) and the MIC [14] was 0.1. It also gave an MIC (Candida albicans CCH 442) of over 100 µg/mL, an MIC [15] of 0.1 µg/mL (≈ 0.114 µM) and an MIC (Escherichia coli DC-2) of 100 µg/mL (≈ 114 µM). The MIC ([16]; Table 1B) was 0.05 µg/mL (≈ 0.057 µM), the MIC [17] was 0.1 µg/mL (≈ 0.114 µM) and the MIC ([19]; Table 1B) was 0.1. It also gave an MIC (Escherichia coli JUHL) of 50, an MIC ([20]; Table 1B) of 0.25 µg/mL (≈ 0.285 µM) and an MIC [21] of 0.1 µg/mL (≈ 0.114 µM). The MIC [22] was 0.1 µg/mL (≈ 0.114 µM) and the MIC ([23]; Table 1B) was 0.01 µg/mL (≈ 0.0114 µM).
